In patent publication US20170190671A1, “BIS(ARYL)CATECHOL DERIVATIVES AS HERBICIDES” (E I DU PONT DE NEMOURS AND COMPANY, priority 2014, published 2017):

Tests used:
[1] = tested on: barnyardgrass (Echinochloa crus-galli); test: Test A preemergence; format: in vivo; conditions: Echinochloa crus-galli, pre-emergence, 240 h, 0 to 100 scale (0 no effect, 100 complete control), read-out: Barnyardgrass plant response rating
In short: (§1)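 Injury scores run from 0, no effect, to 100, complete control, judged by eye against untreated plants roughly 10 days after treatment. Chemicals carried a surfactant in a non-phytotoxic solvent and went onto loam–sand soil preemergence or onto one- to two-leaf seedlings postemergence.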

[2] = tested on: pigweed (Amaranthus retroflexus); test: Test A preemergence; format: in vivo; conditions: Amaranthus retroflexus, pre-emergence, 240 h, 0 to 100 scale (0 no effect, 100 complete control), read-out: Pigweed plant response rating
In short: as §1

[3] = tested on: kochia (Kochia scoparia); test: Test A preemergence; format: in vivo; conditions: Bassia scoparia, pre-emergence, 240 h, 0 to 100 scale (0 no effect, 100 complete control), read-out: Kochia plant response rating
In short: as §1

[4] = tested on: giant foxtail (Setaria faberii); test: Test A preemergence; format: in vivo; conditions: Setaria faberi, pre-emergence, 240 h, 0 to 100 scale (0 no effect, 100 complete control), read-out: Foxtail, Giant plant response rating
In short: as §1

[5] = tested on: ragweed (common ragweed, Ambrosia elatior); test: Test A preemergence; format: in vivo; conditions: Ambrosia artemisiifolia, pre-emergence, 240 h, 0 to 100 scale (0 no effect, 100 complete control), read-out: Ragweed plant response rating
In short: as §1

[6] = tested on: Italian ryegrass (Lolium multiflorum); test: Test A preemergence; format: in vivo; conditions: Lolium multiflorum, pre-emergence, 240 h, 0 to 100 scale (0 no effect, 100 complete control), read-out: Ryegrass, Italian plant response rating
In short: as §1

[7] = tested on: barnyardgrass (Echinochloa crus-galli); test: Test A postemergence; format: in vivo; conditions: Echinochloa crus-galli, post-emergence, 240 h, 0 to 100 scale, read-out: Plant response rating, Barnyardgrass
In short: as §1

[8] = tested on: blackgrass (Alopecurus myosuroides); test: Test A postemergence; format: in vivo; conditions: Alopecurus myosuroides, post-emergence, 240 h, 0 to 100 scale, read-out: Plant response rating, Blackgrass
In short: as §1

[9] = tested on: pigweed (Amaranthus retroflexus); test: Test A postemergence; format: in vivo; conditions: Amaranthus retroflexus, post-emergence, 240 h, 0 to 100 scale, read-out: Plant response rating, Pigweed
In short: as §1

[10] = tested on: kochia (Kochia scoparia); test: Test A postemergence; format: in vivo; conditions: Bassia scoparia, post-emergence, 240 h, 0 to 100 scale, read-out: Plant response rating, Kochia
In short: as §1

[11] = tested on: giant foxtail (Setaria faberii); test: Test A postemergence; format: in vivo; conditions: Setaria faberi, post-emergence, 240 h, 0 to 100 scale, read-out: Plant response rating, Foxtail, Giant
In short: as §1

[12] = tested on: corn (Zea mays); test: Test A postemergence; format: in vivo; conditions: Zea mays, post-emergence, 240 h, 0 to 100 scale
In short: as §1

[13] = tested on: ragweed (common ragweed, Ambrosia elatior); test: Test A postemergence; format: in vivo; conditions: Ambrosia artemisiifolia, post-emergence, 240 h, 0 to 100 scale, read-out: Plant response rating, Ragweed
In short: as §1

[14] = tested on: wheat (Triticum aestivum); test: Test A postemergence; format: in vivo; conditions: Triticum aestivum, post-emergence, 240 h, 0 to 100 scale, read-out: Plant response rating, Wheat
In short: as §1

[15] = tested on: galium (catchweed bedstraw, Galium aparine); test: Test A postemergence; format: in vivo; conditions: Galium, post-emergence, 240 h, 0 to 100 scale, read-out: Plant response rating, Galium
In short: as §1

[16] = tested on: Italian ryegrass (Lolium multiflorum); test: Test A postemergence; format: in vivo; conditions: Lolium multiflorum, post-emergence, 240 h, 0 to 100 scale, read-out: Plant response rating, Ryegrass, Italian
In short: as §1

[17] = tested on: ducksalad (Heteranthera limosa); test: Test B flooded paddy; format: in vivo; conditions: Heteranthera limosa, 336 h; 250 g ai/ha, Flood, 13 to 15 days, scale 0 (no effect) to 100 (complete control); read-out: Plant response rating, Ducksalad
In short: (§2)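 Under a constant 3 cm flood, test compounds went directly into the paddy water. Following 13 to 15 days of greenhouse growth, treated species and controls were compared by eye.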

[18] = tested on: barnyardgrass (Echinochloa crus-galli); test: Test B flooded paddy; format: in vivo; conditions: Echinochloa crus-galli, 336 h; 250 g ai/ha, Flood, 13 to 15 days, scale 0 (no effect) to 100 (complete control); read-out: Plant response rating, Barnyardgrass
In short: as §2

[19] = tested on: sedge, umbrella (small-flower umbrella sedge, Cyperus difformis); test: Test B flooded paddy; format: in vivo; conditions: Cyperus difformis, 336 h; 250 g ai/ha, Flood, 13 to 15 days, scale 0 (no effect) to 100 (complete control); read-out: Plant response rating, Sedge, Umbrella
In short: as §2

[20] = tested on: rice (Oryza sativa); test: Test B flooded paddy; format: in vivo; conditions: Oryza sativa, 336 h; 250 g ai/ha, Flood, 13 to 15 days, scale 0 (no effect) to 100 (complete control); read-out: Plant response rating, Rice
In short: as §2

[21] = tested on: pigweed (Amaranthus retroflexus); test: Test C postemergence; format: in vivo; conditions: Amaranthus retroflexus, post-emergence, 336 h, Postemergence, scale 0 to 100, read-out: Plant response rating, Pigweed
In short: (§3)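 Treatment is preemergence to seeds in a loam and sand soil, or postemergence to plants 2 to 18 cm high in a peat moss-based medium. The compound is delivered in a non-phytotoxic solvent mixture including surfactant. Effects are judged by eye 13 to 15 days later on a 0 to 100 scale.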

[22] = tested on: kochia (Kochia scoparia); test: Test C postemergence; format: in vivo; conditions: Bassia scoparia, post-emergence, Postemergence, scale 0 to 100, read-out: Plant response rating, Kochia
In short: as §3

`N#Cc1cccc(Oc2ncc(Cl)cn2)c1Oc1ncc(C(F)(F)F)cn1` [Compound 38, 3-[(5-chloro-2-pyrimidinyl)oxy]-2-[[5-(trifluoromethyl)-2-pyrimidinyl]oxy]-benzonitrile] gave a pest or weed control at 31 g/ha ([1]; 31 g ai/ha) of 80%, a pest or weed control at 125 g/ha ([1]; 125 g ai/ha) of 100% and a pest or weed control at 31 g/ha ([2]; 31 g ai/ha) of 100%. It also gave a pest or weed control at 125 g/ha ([2]; 125 g ai/ha) of 100%, a pest or weed control at 31 g/ha ([3]; 31 g ai/ha) of 90% and a pest or weed control at 125 g/ha ([3]; 125 g ai/ha) of 100%. It also gave a pest or weed control at 31 g/ha ([4]; 31 g ai/ha) of 100%, a pest or weed control at 125 g/ha ([4]; 125 g ai/ha) of 100% and a pest or weed control at 31 g/ha ([5]; 31 g ai/ha) of 30%. The pest or weed control at 125 g/ha ([5]; 125 g ai/ha) was 90%, the pest or weed control at 31 g/ha ([6]; 31 g ai/ha) was 10% and the pest or weed control at 125 g/ha ([6]; 125 g ai/ha) was 90%. The pest or weed control at 31 g/ha ([7]; 31 g ai/ha) was 90%, the pest or weed control at 125 g/ha ([7]; 125 g ai/ha) was 90% and the pest or weed control at 31 g/ha ([8]; 31 g ai/ha) was 40%. The pest or weed control at 125 g/ha ([8]; 125 g ai/ha) was 90%, the pest or weed control at 31 g/ha ([9]; 31 g ai/ha) was 100% and the pest or weed control at 125 g/ha ([9]; 125 g ai/ha) was 100%. For the same compound, the pest or weed control at 31 g/ha ([10]; 31 g ai/ha) was 100%, the pest or weed control at 125 g/ha ([10]; 125 g ai/ha) was 100% and the pest or weed control at 31 g/ha ([11]; 31 g ai/ha) was 100%. The pest or weed control at 125 g/ha ([11]; 125 g ai/ha) was 100%, the Corn plant response rating (crop injury, 0 = no effect, 100 = complete kill) at 31 g/ha ([12]; 31 g ai/ha) was 40% and the Corn plant response rating (crop injury, 0 = no effect, 100 = complete kill) at 125 g/ha ([12]; 125 g ai/ha) was 90%. It also gave a pest or weed control at 31 g/ha ([13]; 31 g ai/ha) of 40%, a pest or weed control at 125 g/ha ([13]; 125 g ai/ha) of 70% and a plant injury at 31 g/ha ([14]; 31 g ai/ha) of 20%. For the same compound, the plant injury at 125 g/ha ([14]; 125 g ai/ha) was 90%, the pest or weed control at 31 g/ha ([15]; 31 g ai/ha) was 80% and the pest or weed control at 125 g/ha ([15]; 125 g ai/ha) was 100%. For the same compound, the pest or weed control at 31 g/ha ([16]; 31 g ai/ha) was 50%, the pest or weed control at 125 g/ha ([16]; 125 g ai/ha) was 90% and the pest or weed control at 250 g/ha [17] was 100%. For the same compound, the pest or weed control at 250 g/ha [18] was 85%, the pest or weed control at 250 g/ha [19] was 100% and the plant injury at 250 g/ha [20] was 45%. It also gave a pest or weed control at 31 g/ha ([21]; 31 g ai/ha) of 85%, a pest or weed control at 62 g/ha ([21]; 62 g ai/ha) of 90% and a pest or weed control at 125 g/ha ([21]; 125 g ai/ha) of 90%. The pest or weed control at 16 g/ha ([22]; 16 g ai/ha) was 90%, the pest or weed control at 31 g/ha ([22]; 31 g ai/ha) was 90% and the pest or weed control at 62 g/ha ([22]; 62 g ai/ha) was 90%. It also gave a pest or weed control at 125 g/ha ([22]; 125 g ai/ha) of 95% and a melting point of 101 to 103 °C.
